# From patent US8901155B2, “Method for treating a TRPV1-mediated disease” (Santen Pharmaceutical Co., Ltd., priority 2007, dated 2014)
# Assays:
# human TRPV1 = target: T1, human TRPV1 (Homo sapiens, UniProt Q8NER1); experiment: Intracellular calcium influx in human TRPV1-expressing CHO cells; format: cell-based; conditions: final concentration 1 μM; relative to 1 μM capsaicin
# T1 construct: expressed in transfected cells; host or cells: CHO cells
# Excerpt: 3. Measurement of Intracellular Calcium Influx by Present Compound in Human TRPV1-Expressing Cells
# It is known that TRPV1 is an ion channel receptor and by the activation of TRPV1, intracellular calcium ion influx occurs. According to the method of Phelps et al. (Eur. J. Pharmacol., 513: 57-66, 2005), the action of the present compound of activating human TRPV1 was studied using CHO cells transfected with a gene encoding human TRPV1.
# CHO cells were suspended in DMEM and seeded in a culture plate at 3.5×10^4 cells/well. A test compound or a control compound was dissolved in DMSO to prepare a DMSO solution, and times concentrated test compound-containing liquid and control compound-containing liquid each of which was composed of HBSS and contained the thus prepared DMSO solution were prepared.
# To the CHO cells, a calcium indicator was added, and the resulting mixture was incubated at 37° C. for 30 minutes, and then further incubated at 22° C. for 30 minutes to achieve equilibration. Subsequently, one-tenth volume of the test compound-containing liquid, control compound-containing liquid (final concentration: 1 μM), or HBSS solution was added thereto, and a change in the fluorescence intensity of the intracellular calcium concentration indicator was measured.
# (Calcium influx(%))=((fluorescence intensity in the presence of test compound)−(background fluorescence intensity)/(fluorescence intensity in the presence of control compound)−(background fluorescence intensity))×100
# vanilloid receptor = target: T2, vanilloid receptor (Rattus norvegicus, UniProt O35433); experiment: Binding activity in rat spinal cord membrane specimen (3H-RTX competition)
# T2 construct: Rat spinal cord was homogenized according to a common procedure; from tissue; host or cells: rat spinal cord membrane specimen
# T2 sequence (O35433 whole entry): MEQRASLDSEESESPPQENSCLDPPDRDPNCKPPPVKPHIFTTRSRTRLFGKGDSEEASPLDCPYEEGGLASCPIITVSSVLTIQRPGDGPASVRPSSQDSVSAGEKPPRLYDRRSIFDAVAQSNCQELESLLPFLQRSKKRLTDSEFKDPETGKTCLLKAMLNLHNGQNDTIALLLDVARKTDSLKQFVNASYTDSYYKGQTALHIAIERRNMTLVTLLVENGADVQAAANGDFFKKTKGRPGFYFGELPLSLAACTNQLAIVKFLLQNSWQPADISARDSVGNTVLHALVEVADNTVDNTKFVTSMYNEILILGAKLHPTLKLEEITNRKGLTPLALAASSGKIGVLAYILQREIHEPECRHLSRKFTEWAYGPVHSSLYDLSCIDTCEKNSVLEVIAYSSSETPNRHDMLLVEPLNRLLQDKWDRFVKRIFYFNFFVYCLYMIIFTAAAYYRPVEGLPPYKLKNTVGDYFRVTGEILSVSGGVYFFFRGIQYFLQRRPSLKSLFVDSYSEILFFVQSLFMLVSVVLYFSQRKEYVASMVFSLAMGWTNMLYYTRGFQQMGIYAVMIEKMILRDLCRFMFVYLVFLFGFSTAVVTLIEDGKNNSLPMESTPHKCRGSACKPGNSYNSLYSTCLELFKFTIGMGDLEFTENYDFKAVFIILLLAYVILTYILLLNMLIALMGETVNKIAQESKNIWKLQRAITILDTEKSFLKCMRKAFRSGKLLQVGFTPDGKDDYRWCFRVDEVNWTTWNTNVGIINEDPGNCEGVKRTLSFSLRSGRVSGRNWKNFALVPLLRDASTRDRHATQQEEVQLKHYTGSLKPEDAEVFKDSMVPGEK
# Method: Binding Activity of the Present Compound in Rat Spinal Cord Membrane Specimen
# According to the method of Szallasi et al., the binding activity of the present compound to a vanilloid receptor contained in a rat spinal cord membrane specimen was studied.
# A test compound-containing liquid and a competitive compound-containing liquid containing a test compound and a competitive compound, respectively, and each composed of purified water containing 1% DMSO were prepared. As the competitive compound, tritium-labeled resiniferatoxin (^3H-RTX) was used, and the concentration of ^3H-RTX in the competitive compound-containing liquid was set to 0.2 nM.
# Rat spinal cord was homogenized according to a common procedure, and the resulting homogenate was washed several times, followed by centrifugation. The resulting pellet was suspended in an incubation buffer (10 mM HEPES, pH 7.4, 0.25 mg/ml ESA, 0.75 mM CaCl2, 5 mM KCl, 2 mM MgCl2, 5.8 mM NaCl, 137 mM sucrose) at 10 mg/mL, whereby a membrane specimen was prepared.
# After 5.25 μL of the test compound-containing liquid and 500 μL of the membrane specimen were mixed, 20 μL of the competitive compound-containing liquid was added thereto, and the entire resulting mixture was incubated at 37° C. for 60 minutes. The resulting membrane/^3H-RTX complex was collected by filtration, followed by washing. Then, the radioactivity was measured with a scintillation counter.
# The above-mentioned assay was performed using the test compound-containing liquids containing a test compound at various concentrations and the results were analyzed as follows.
# The inhibition ratio (%) of the test compound at each concentration was obtained from the following equation. (Inhibition ratio(%))={1−[(binding activity in the presence of test compound (cpm))−(radioactivity of non-specific binding (cpm))]/[(radioactivity of total binding (cpm))−(radioactivity of non-specific binding (cpm))]×100 […]
# [1] = Rat model of indomethacin-induced gastric mucosal injury; format: in vivo; conditions: indomethacin 30 mg/kg s.c., 6 hours
# Method: 7. Effect in Rat Model of Gastrointestinal Dysfunction
# A model of indomethacin-induced gastric mucosal injury is a model of gastrointestinal dysfunction widely used in the evaluation of drug efficacy of a therapeutic agent for ulcer. According to the method of Hoshino et al. (Folia Pharmacologica Japonica, Vol. 97, p. 287, 1991), the effect of the present compound in a rat model of indomethacin-induced gastric mucosal injury was studied.
# A test compound-containing liquid was prepared immediately before use by suspending a test compound in a 1% aqueous methyl cellulose solution which is a vehicle. […]
# To a rat fasted for 24 hours, the test compound-containing liquid, control compound-containing liquid, or vehicle (pathological control group) was orally administered, and immediately thereafter, indomethacin (Wako Pure Chemical Industries, Ltd.) was subcutaneously administered at a dose of 30 mg/kg. […] The length of the longest diameter of the site of a lesion dyed in blue including an ecchymosis was measured macroscopically using calipers.
# A mean value of the sum of the longest diameters of the sites of lesions was obtained for each animal and was defined as an ulcer index. Further, a ratio of inhibition of gastric mucosal injury was calculated from the following equation. […]
# TRPV1 = target: T3, TRPV1 (Rattus norvegicus, UniProt O35433); experiment: CGRP release in cultured rat dorsal root ganglion-derived neurons; format: cell-based
# T3 construct: A dorsal root ganglion isolated from the spinal cord of a rat was sectioned and enzymatically treated; endogenous in cells; host or cells: primary cultured rat dorsal root ganglion neurons
# T3 sequence (O35433 whole entry): as above
# Excerpt: 2. Effect of Present Compound on TRPV1 Agonist-Induced CGRP Release System Using Rat Dorsal Root Ganglion-Derived Neurons It is known that TRPV1 is expressed in dorsal root ganglion (DRG), and that by the activation of TRPV1, CGRP which is a neurotransmitter is released from a nerve terminal. According to the method of Ahluwalia et al., (European Journal of Neuroscience, Vol. 17, p. 2611, 2003), the CGRP releasing activity of the present compound in cultured neurons derived from rat DRG was studied. A test compound was weighed and dissolved in DMSO. The resulting solution was diluted with a medium, whereby a test compound-containing liquid was prepared. Each test compound-containing liquid was prepared such that 0.4% DMSO was contained therein as well. […] A dorsal root ganglion isolated from the spinal cord of a rat was sectioned and enzymatically treated with a collagenase/DNase I solution at 37° C. for 1 hour, and then with a trypsin/DNase I solution at 37° C. for 20 minutes. The released neurons were washed and collected, and then seeded in a poly-D-lysine/laminin-coated culture dish and cultured under conditions of 37° C. and 5% CO2 in a neuronal medium (NGF/NCS medium) supplemented with a nerve growth factor for 1 day. The medium was replaced with an NGF/NCS medium containing cytosine arabinoside, and the neurons were further cultured for 2 days. […]
# T1 sequence (Q8NER1 whole entry): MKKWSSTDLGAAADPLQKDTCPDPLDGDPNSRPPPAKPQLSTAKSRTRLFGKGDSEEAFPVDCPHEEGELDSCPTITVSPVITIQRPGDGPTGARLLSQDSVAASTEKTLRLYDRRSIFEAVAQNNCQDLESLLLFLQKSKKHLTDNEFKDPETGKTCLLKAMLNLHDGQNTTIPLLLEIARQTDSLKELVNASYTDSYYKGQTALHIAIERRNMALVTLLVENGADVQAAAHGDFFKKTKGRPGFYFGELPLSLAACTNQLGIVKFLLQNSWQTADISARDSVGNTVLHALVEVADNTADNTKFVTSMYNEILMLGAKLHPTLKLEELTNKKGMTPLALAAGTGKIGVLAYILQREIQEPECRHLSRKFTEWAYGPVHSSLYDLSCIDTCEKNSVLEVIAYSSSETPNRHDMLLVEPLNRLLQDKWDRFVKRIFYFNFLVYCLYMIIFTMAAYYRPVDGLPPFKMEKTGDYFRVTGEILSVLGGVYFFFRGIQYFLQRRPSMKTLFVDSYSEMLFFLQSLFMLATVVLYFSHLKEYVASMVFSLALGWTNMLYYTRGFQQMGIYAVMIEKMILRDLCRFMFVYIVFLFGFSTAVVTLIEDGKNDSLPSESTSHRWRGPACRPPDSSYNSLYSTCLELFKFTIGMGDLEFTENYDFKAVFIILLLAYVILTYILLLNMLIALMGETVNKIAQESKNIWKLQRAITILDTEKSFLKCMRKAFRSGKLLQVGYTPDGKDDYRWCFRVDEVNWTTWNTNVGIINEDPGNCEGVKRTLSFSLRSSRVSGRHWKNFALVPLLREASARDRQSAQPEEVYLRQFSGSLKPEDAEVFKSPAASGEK
structure (smiles),measurement,setting,value
"CCCCCN(CCC12CC3CC(CC(C3)C1)C2)C(=O)NCC(C)Cc1ccncc1 (single isomer, unassigned; (+)) [Compound 6, (+)-1-[2-(1-adamantyl)ethyl]-3-[2-methyl-3-(4-pyridyl)propyl]-1-pentylurea]",Calcium influx (%),human TRPV1,76.6%
"CCCCCN(CCC12CC3CC(CC(C3)C1)C2)C(=O)NCCCc1ccncc1 [Compound 1, 1-[2-(1-adamantyl)ethyl]-1-pentyl-3-[3-(4-pyridyl)propyl]urea]",IC50,"vanilloid receptor; 0.2 nM 3H-RTX liquid, 37° C. 60 minutes, mean±SEM of assays performed in triplicate, read-out: IC50 value to the vanilloid receptor in the rat spinal cord neuronal membrane specimen",191 ± 28 nM
same,Ki,"vanilloid receptor; from IC50, dissociation constant 0.046 nM, mean±SEM, read-out: Ki value to the vanilloid receptor in the rat spinal cord neuronal membrane specimen",35.8 ± 5.2 nM
same,Hill coefficient,vanilloid receptor; nonlinear regression of inhibition curve,1.83±0.449
same,inhibition ratio (%) of gastric mucosal injury,[1]; 1 mg/kg oral,67.41%
same,CGRP release in competitive inhibition assay with capsazepine,"TRPV1; 10 μM (final concentration) capsazepine, FIG. 3",antagonized by capsazepine
same,CGRP release,"TRPV1; absence of capsazepine, 10 minutes culture, FIG. 2",released CGRP in a dose-dependent manner
"O=C(NCCCc1ccncc1)N(CCC(F)(F)F)CCC12CC3CC(CC(C3)C1)C2 [Compound 2, 1-[2-(1-adamantyl)ethyl]-3-[3-(4-pyridyl)propyl]-1-(3,3,3-trifluoropropyl)urea]",Calcium influx (%),human TRPV1,74.1%
"CCCN(CCCC12CC3CC(CC(C3)C1)C2)C(=O)NCCCc1ccncc1 [Compound 3, 1-[3-(1-adamantyl)propyl]-1-propyl-3-[3-(4-pyridyl)propyl]urea]",Calcium influx (%),human TRPV1,59.8%
"CCCCCN(CCC12CC3CC(CC(C3)C1)C2)C(=O)NC(C)CCc1ccncc1 (stereo not shown) [Compound 4, 1-[2-(1-adamantyl)ethyl]-3-[1-methyl-3-(4-pyridyl)propyl]-1-pentylurea]",Calcium influx (%),human TRPV1,43.9%
"CCCCCN(CCC12CC3CC(CC(C3)C1)C2)C(=O)NCC(C)Cc1ccncc1 (stereo not shown) [Compound 5, 1-[2-(1-adamantyl)ethyl]-3-[2-methyl-3-(4-pyridyl)propyl]-1-pentylurea]",Calcium influx (%),human TRPV1,64.3%
"CCCCCN(CCC12CC3CC(CC(C3)C1)C2)C(=O)NC/C=C/c1ccncc1 [Compound 7, (E)-1-[2-(1-adamantyl)ethyl]-1-pentyl-3-[3-(4-pyridyl)-2-propenyl]urea]",Calcium influx (%),human TRPV1,36.1%
"COc1ccc2[nH]c([S+]([O-])Cc3ncc(C)c(OC)c3C)nc2c1 (stereo not shown) [Omeprazole, omeprazole, reference compound]",inhibition ratio (%) of gastric mucosal injury,[1]; 10 mg/kg oral,69.22%
